Experimental data published in the pKa sets of Baltruschat and Czodrowski (2020).

details: basic group

First: CCCCCCN(CCCCCC)c1ccccc1
Second: CCCN(CCC)c1ccccc1
The pKa of the first is lower: 4.89 for the first, 6.13 for the second.

First: C1CNCNC1
Second: C1CCCNCCCCCCNCC1
The pKa of the first is lower: 8.84 for the first, 9.6 for the second.

First: Cc1cc(C)n(-c2cc(C)n(C)n2)n1
Second: CNc1nc(C)nc2c1cnn2C
The pKa of the first is lower: 2.19 for the first, 5 for the second.

First: CN(C)CCSCC[NH+](C)C
Second: CCN(CC)CCOCC[NH+](CC)CC
The pKa of the first is lower: 8 for the first, 8.61 for the second.

`Cc1ccc(C)c(NN=C(C#N)C#N)c1` and `Cc1ccc(NN=C(C#N)C#N)c([N+](=O)[O-])c1` are within 0.2 log units of each other in pKa: -0.84 for the first, -0.78 for the second.

First: CC1(N)C[C@]1(C)N (stereo not given in full)
Second: C[C@H](N)[C@H](C)N
The pKa of the first is lower: 9.03 for the first, 9.84 for the second.

Going from `COc1cc(S(C)=O)ccc1-c1nc2ccccc2[nH]1` (stereo not given) to `COc1ccccc1N`, the pKa falls from 4.76 to 4.51.

First: O=C(O)Cc1[nH]c2ccccc2[nH+]1
Second: N#CC(C#N)=NNc1ccccc1C(=O)O
The pKa of the first is lower: -4.7 for the first, -0.96 for the second.

Going from `C/C=C1/CN2CC[C@]34C(=C(C(=O)OC)[C@H]1C[C@H]23)Nc1ccccc14` to `CC(C)(C)[C@]1(O)CCN2C[C@H]3c4ccccc4CCc4cccc(c43)[C@@H]2C1`, the pKa falls from 7.46 to 7.15.

First: CCC(C)NC(C)C (stereo not given)
Second: CNC(C(=O)[O-])C(C)C (stereo not given)
The pKa of the first is higher: 11 for the first, 9.9 for the second.

`CCS(=O)(=O)c1cc(OC)c(OC)c(C(=O)N[C@@H]2C[C@H]3CC[C@@H](C2)N3Cc2ccccc2)c1` and `COc1ccc2c3c1O[C@H]1[C@@H](O)CC[C@H]4[C@@H](C2)N(C)CC[C@@]341` are within 0.2 log units of each other in pKa: 8.9 for the first, 8.71 for the second.

Compared with `CCCN(CCC)CCCNC(=O)/C=N/[O-]`, `CCCN(CCC)CC(=O)NC1c2ccccc2-c2ccccc21` is lower in pKa: 10.3 for the first, 7.28 for the second.

Compared with `COC(=O)c1cccc(N)c1`, `Nc1cccc(O)c1` is higher in pKa: 3.55 for the first, 4.29 for the second.

Going from `CC(O)CNCCN` (stereo not given) to `NCCC[Se-]`, the pKa rises from 9.86 to 11.3.

First: CCN(CC)CCCC(C)Nc1ccnc2ccccc12 (stereo not given)
Second: CSc1nccc2ccccc12
The pKa of the first is higher: 10.2 for the first, 3.93 for the second.

Compared with `Oc1ccc(F)cc1CN1CCOCC1`, `Cc1ccc(NC(=O)CN2CCCCC2)cc1` is higher in pKa: 6.78 for the first, 7.85 for the second.

Going from `CCC(=O)C(CCN(C)C)(c1ccccc1)c1ccccc1` to `CN(C)CCC/N=C(\c1ccccc1)c1cccc2ccccc12`, the pKa falls from 9.23 to 9.

Compared with `CCc1c(C)nn(C)c1O`, `Cc1nc(N)c2cnn(C)c2n1` is higher in pKa: 3.5 for the first, 5 for the second.

Compared with `Cc1ncnc2ccccc12`, `CC1ONCc2ccccc21` (stereo not given) is higher in pKa: 2.52 for the first, 3.6 for the second.

First: C[NH2+]CC/C(N)=N/O
Second: N=C(N)N
The pKa of the first is lower: 3.6 for the first, 13.1 for the second.

First: Cc1ccc([N+](=O)[O-])c2c(NCCC[NH+](C)C)c3ccccc3nc12
Second: Cc1cc(N)ccc1[N+](=O)[O-]
The pKa of the first is higher: 6.29 for the first, 1.64 for the second.

Compared with `C[C@@H]1C[NH2+][C@@H](C)CN1`, `C=C[C@]1(O)C[C@@H](C)N[C@H]2CCCC[C@@H]21` is higher in pKa: 5.29 for the first, 9.51 for the second.

First: ONc1ccc(Cl)cc1
Second: NOCc1ccc(Cl)cc1
The pKa of the first is lower: 2.58 for the first, 4.22 for the second.

`N=C(N)Nc1nc(N)nc(N)n1` and `Nc1nc(N)nc([O-])n1` are the same in pKa: 9.4 for the first, 9.4 for the second.

Compared with `CN1CCCC1c1cccnc1` (stereo not given), `Cc1ccc(C2CCCN2)cc1` (stereo not given) is higher in pKa: 8.06 for the first, 9.99 for the second.

First: Cc1cccc(C(=O)[O-])n1
Second: CNC(=O)c1ccccn1
The pKa of the first is higher: 5.8 for the first, 2.4 for the second.

Compared with `CC(C)(C)c1cc(N)cc(C(C)(C)C)c1`, `Cc1ccc(N)cc1Cl` is lower in pKa: 4.97 for the first, 4.05 for the second.

`Cc1c[nH]c(C)c1C` and `Cc1ncc2nc(C)c(C)nc2n1` are within 0.2 log units of each other in pKa: 3.94 for the first, 3.76 for the second.

Going from `CCc1ncc[nH]1` to `OCCc1ccccn1`, the pKa falls from 8.05 to 5.37.

Going from `CCCCCCCCCCCCCCCCCCN(CC(O)CC)CC(O)CC` (stereo not given) to `CCCCCCCCCCCCCCCNCCCCCCCCCCCCCCC`, the pKa rises from 5.6 to 11.

Going from `CCNc1cc[nH+]c([O-])n1` to `Cc1nc2c(N)cccc2[nH]1`, the pKa rises from 4.58 to 8.1.

First: COc1ccc2c3c1O[C@@H]1C(=O)CC[C@]4(O)[C@H](C2)N(C)CC[C@@]314
Second: COc1ccc(CN)cc1OC
The pKa of the first is lower: 8.6 for the first, 9.39 for the second.

First: O/N=C/NO
Second: CCn1nnc(CC(=O)O)n1
The pKa of the first is higher: 4.05 for the first, 3.45 for the second.

Going from `N[C@H]1CCCC[C@H]1C(=O)Oc1ccc([N+](=O)[O-])cc1` to `CC(=O)Oc1cccc2cccnc12`, the pKa falls from 8.42 to 3.3.

Going from `COc1cc(C[NH3+])c(C)cc1N` to `Cc1ccc(N)cc1-c1cc([NH3+])ccc1C`, the pKa falls from 4.26 to 3.8.

`CN(CCO)c1ccccc1` and `CNc1ccccc1` are within 0.2 log units of each other in pKa: 4.89 for the first, 4.8 for the second.

Going from `CCCCNCC(=O)Nc1c(C)cccc1C` to `CC(C)NCC(O)COc1ccccc1` (stereo not given), the pKa rises from 8.04 to 9.45.

Going from `NCCCCCc1ccncc1` to `N#CCCNc1ccccc1`, the pKa falls from 10.3 to 4.5.

Compared with `Nc1nc[nH]n1`, `Cc1ncncc1N` is lower in pKa: 4.3 for the first, 3.15 for the second.

First: CCN(CC)CC1CO1 (stereo not given)
Second: C[Si](C)(CN)O[Si](C)(C)CN
The pKa of the first is lower: 8.55 for the first, 10.3 for the second.

`c1ccc(-c2ccnc3c2ccc2cccnc23)cc1` and `Cc1cc(-c2ccccc2)nn2ccnc12` are within 0.2 log units of each other in pKa: 4.9 for the first, 4.84 for the second.

Compared with `CC(CN1CCCC(C)(C)C1)Nc1ccccn1` (stereo not given), `[O-][n+]1cnc(NCc2ccccc2)c2nc[nH]c21` is lower in pKa: 9.23 for the first, 2.86 for the second.

First: CC(=O)N=C(N(C)C)N(C)C
Second: CNCC(=O)N(C)C
The pKa of the first is lower: 7.5 for the first, 8.86 for the second.

Compared with `Nc1ncnc2ncn([C@H]3O[C@H](CO)[C@@H](O)[C@H]3O)c12`, `Cn1cncc1C[C@H](N)C(=O)[O-]` is higher in pKa: 3.9 for the first, 8.72 for the second.

Going from `C1=CN2CCC1CC2` to `O=[N+](O)C1=CC=CC1`, the pKa falls from 9.82 to 3.25.
